Reference: patent publication US9476099B2 (TRUSTEES OF DARTMOUTH COLLEGE, priority 2012, dated 2016)

Tested on: NT2/D1-R1 control and DNMT3B knockdown cells
Test: Genome-wide expression analysis with PAM clusters, control and DNMT3B knockdown cells (Tables 8-14)
Conditions: sh-3B + aza, NT2/D1-R1 DNMT3B knockdown, decitabine 10 nM 3 days

Question: Which results are given for `Nc1ncn([C@H]2C[C@H](O)[C@@H](CO)O2)c(=O)n1` [aza]?
Answer: ACSS2 (NM_0010765) gene expression, Mean: 406.693; ADCK1 (NM_020421) gene expression, Mean: 305.179; ADCY1 (NM_021116) gene expression, Mean: 138.949; AGAP1 (NM_014914) gene expression, Mean: 225.72; AK056312 gene expression, Mean: 471.555; ANKRD9 (NM_152326) gene expression, Mean: 896.077; APEH (NM_001640) gene expression, Mean: 1236.16; APP (NM_201414) gene expression, Mean: 393.758; C1orf115 (NM_024709) gene expression, Mean: 380.885; C2orf34 (NM_024766) gene expression, Mean: 286.591; C7orf47 (NM_145030) gene expression, Mean: 749.147; C16orf35 (NM_0010394) gene expression, Mean: 464.104; CA4 (NM_000717) gene expression, Mean: 1313.05; CACNA2D2 (NM_006030) gene expression, Mean: 398.095; CD24 (NM_013230) gene expression, Mean: 4095.34; CD248 (NM_020404) gene expression, Mean: 166.587; CDC42EP5 (NM_145057) gene expression, Mean: 232.63; CDH3 (NM_001793) gene expression, Mean: 1031.14; CEBPB (NM_005194) gene expression, Mean: 886.982; CHST13 (NM_152889) gene expression, Mean: 184.993; CLASP1 (NM_015282) gene expression, Mean: 448.757; CLIP2 (NM_032421) gene expression, Mean: 216.273; COMMD1 (NM_152516) gene expression, Mean: 327.95; COMMD7 (NM_0010993) gene expression, Mean: 1236.98; CRMP1 (NM_0010148) gene expression, Mean: 628.721; CTNNBIP1 (NM_020248) gene expression, Mean: 181.632; CXCL16 (NM_022059) gene expression, Mean: 276.818; CYP2F1 (NM_000774) gene expression, Mean: 134.435; CYP2S1 (NM_030622) gene expression, Mean: 1003.81; DBC1 (NM_014618) gene expression, Mean: 313.757; DDIT4 (NM_019058) gene expression, Mean: 558.55; DGKQ (NM_001347) gene expression, Mean: 236.075; DLL3 (NM_016941) gene expression, Mean: 150.963; DPYSL3 (NM_001387) gene expression, Mean: 841.778; DYM (NM_017653) gene expression, Mean: 332.811; DYSF (NM_003494) gene expression, Mean: 345.371; EPHA1 (NM_005232) gene expression, Mean: 886.512; EVI5L (NM_145245) gene expression, Mean: 248.688; EVL (NM_016337) gene expression, Mean: 840.767; EXTL3 (NM_001440) gene expression, Mean: 869.111; F11R (NM_016946) gene expression, Mean: 218.843; FAF1 (NM_007051) gene expression, Mean: 266.415; FAM125A (NM_138401) gene expression, Mean: 558.795; FAM127A (NM_0010781) gene expression, Mean: 1016.07; FCGBP (NM_003890) gene expression, Mean: 279.685; FDFT1 (NM_004462) gene expression, Mean: 705.216; FIGNL2 (NM_0010136) gene expression, Mean: 289.159; FLNB (NM_001457) gene expression, Mean: 960.275; FOXN3 (NM_005197) gene expression, Mean: 518.292; GAL (NM_015973) gene expression, Mean: 1768.85; GAS7 (NM_201433) gene expression, Mean: 308.927; GLG1 (NM_012201) gene expression, Mean: 913.909; GRAMD1A (NM_020895) gene expression, Mean: 607.142; GTF3C1 (NM_001520) gene expression, Mean: 626.338; HCFC1R1 (NM_0010020) gene expression, Mean: 798.561; HESX1 (NM_003865) gene expression, Mean: 379.045; HINT2 (NM_032593) gene expression, Mean: 706.883; HIST3H2A (NM_033445) gene expression, Mean: 282.379; HIST4H4 (NM_003541) gene expression, Mean: 314.561; HK1 (NM_033500) gene expression, Mean: 4205.36; IDH1 (NM_005896) gene expression, Mean: 1445.11; IL21R (NM_181078) gene expression, Mean: 161.219; JPH3 (NM_020655) gene expression, Mean: 214.843; KIF1A (NM_004321) gene expression, Mean: 150.02; KIF1B (NM_015074) gene expression, Mean: 393.388; LDB2 (NM_001290) gene expression, Mean: 259.706; LDOC1 (NM_012317) gene expression, Mean: 881.126; LHFPL4 (NM_198560) gene expression, Mean: 515.175; LONP1 (NM_004793) gene expression, Mean: 1192.71; LPCAT3 (NM_005768) gene expression, Mean: 456.787; LRBA (NM_006726) gene expression, Mean: 267.501; LRRC33 (NM_198565) gene expression, Mean: 257.521; MAPK3 (NM_0010400) gene expression, Mean: 447.115; MAPKAP1 (NM_0010066) gene expression, Mean: 274.663; MED30 (NM_080651) gene expression, Mean: 707.11; MID1IP1 (NM_021242) gene expression, Mean: 1496.95; MKRN1 (NM_013446) gene expression, Mean: 3678.37; MSRB2 (NM_012228) gene expression, Mean: 698.39; MYO5C (NM_018728) gene expression, Mean: 203.184; NANOG (NM_024865) gene expression, Mean: 1405.64; NCOR2 (NM_006312) gene expression, Mean: 1205.94; NDUFS4 (NM_002495) gene expression, Mean: 375.498; NFE2L3 (NM_004289) gene expression, Mean: 395.959; NGFRAP1 (NM_206917) gene expression, Mean: 1522.67; NKX3-2 (NM_001189) gene expression, Mean: 358.543; NM_014745 gene expression, Mean: 246.953; NPAS1 (NM_002517) gene expression, Mean: 227.998; NPTX2 (NM_002523) gene expression, Mean: 279.223; ODZ3 (NM_0010804) gene expression, Mean: 220.124; P4HB (NM_000918) gene expression, Mean: 2039.07; PACSIN1 (NM_020804) gene expression, Mean: 268.257; PCDH19 (NM_020766) gene expression, Mean: 187.553; PCK2 (NM_0010180) gene expression, Mean: 126.174; PDZD4 (NM_032512) gene expression, Mean: 283.495; PEMT (NM_148172) gene expression, Mean: 1036.99; PEX14 (NM_004565) gene expression, Mean: 423.992; PGM1 (NM_002633) gene expression, Mean: 3256.12; PHC1 (NM_004426) gene expression, Mean: 2226.1; PIM2 (NM_006875) gene expression, Mean: 2475.84; PITPNC1 (NM_181671) gene expression, Mean: 287.618; PNKP (NM_007254) gene expression, Mean: 570.846; PPAP2A (NM_176895) gene expression, Mean: 646.273; PPP1R1B (NM_181505) gene expression, Mean: 588.401; PQLC3 (NM_152391) gene expression, Mean: 307.634; PRSS8 (NM_002773) gene expression, Mean: 925.924; PSAT1 (NM_021154) gene expression, Mean: 2370.22; PTOV1 (NM_017432) gene expression, Mean: 1244.12; PTPLA (NM_014241) gene expression, Mean: 295.309; RAB3IP (NM_175624) gene expression, Mean: 976.727; RALY (NM_007367) gene expression, Mean: 1409.6; RASIP1 (NM_017805) gene expression, Mean: 236.587; RASL11B (NM_023940) gene expression, Mean: 570.022; RCN2 (NM_002902) gene expression, Mean: 957.657; REEP6 (NM_138393) gene expression, Mean: 581.805; RNF130 (NM_018434) gene expression, Mean: 258.36; ROD1 (NM_005156) gene expression, Mean: 1065.57; RPS6KA2 (NM_0010069) gene expression, Mean: 170.158; SAT1 (NM_002970) gene expression, Mean: 2411.02; SCARB1 (NM_005505) gene expression, Mean: 698.95; SCNN1A (NM_001038) gene expression, Mean: 2384.6; SEMA4B (NM_198925) gene expression, Mean: 455.134; SEMA4D (NM_006378) gene expression, Mean: 404.578; SEMA6B (NM_032108) gene expression, Mean: 327.203; SH2B3 (NM_005475) gene expression, Mean: 459.878; SLC3A2 (NM_0010132) gene expression, Mean: 701.201; SLC8A2 (NM_015063) gene expression, Mean: 221.546; SLC16A10 (NM_018593) gene expression, Mean: 222.7; SLC22A23 (NM_021945) gene expression, Mean: 371.628; SND1 (NM_014390) gene expression, Mean: 806.495; SOX2 (NM_003106) gene expression, Mean: 507.636; SPRY1 (NM_005841) gene expression, Mean: 278.849; SPSB2 (NM_032641) gene expression, Mean: 738.293; SRPX (NM_006307) gene expression, Mean: 221.585; SURF6 (NM_006753) gene expression, Mean: 1956.16; TBCD (NM_005993) gene expression, Mean: 565.581; TCEA2 (NM_198723) gene expression, Mean: 471.659; TCF7L1 (NM_031283) gene expression, Mean: 182.485; TIMP4 (NM_003256) gene expression, Mean: 657.953; TMC6 (NM_007267) gene expression, Mean: 426.897; TMEM145 (NM_173633) gene expression, Mean: 204.077; TPST2 (NM_0010085) gene expression, Mean: 683.535; TRAPPC9 (NM_031466) gene expression, Mean: 145.068; TSPAN9 (NM_006675) gene expression, Mean: 1493.67; TUBB4 (NM_006087) gene expression, Mean: 455.752; UBE2E2 (NM_152653) gene expression, Mean: 521.892; UNC84B (NM_015374) gene expression, Mean: 307.131; VCX2 (NM_016378) gene expression, Mean: 178.538; VCX3A (NM_016379) gene expression, Mean: 405.641; VCX3B (NM_0010018) gene expression, Mean: 466.812; VSNL1 (NM_003385) gene expression, Mean: 462.603; WDR8 (NM_017818) gene expression, Mean: 819.149; XBP1 (NM_0010795) gene expression, Mean: 860.839; XM_373896 gene expression, Mean: 451.855; XM_926633 gene expression, Mean: 6671.37; XM_932919 gene expression, Mean: 278.004; XM_933796 gene expression, Mean: 430.873; XM_943677 gene expression, Mean: 268.065; ZBTB46 (NM_025224) gene expression, Mean: 246.643; ZSWIM4 (NM_023072) gene expression, Mean: 558.806; HIST1H2BK (NM_080593) gene expression, Mean (first HIST1H2BK entry (r906)): 1161.66; TRPC4AP (NM_015638) gene expression, Mean (first TRPC4AP entry (r880)): 1093.15; HIST1H2BK (NM_080593) gene expression, Mean (second HIST1H2BK entry (r952)): 355.319; TRPC4AP (NM_015638) gene expression, Mean (second TRPC4AP entry (r892)): 1137.74
